Source: US8865909B2, “Anti-biofilm agents” (Yissum Research Development Company of the Hebrew …, priority 2008, dated 2014)

Assays:
[1] = system: Candida albicans (ATCC 90028); test: C. albicans biofilm formation, XTT metabolic reduction assay; assay type: cell-based
Description: Candida albicans (ATCC 90028) was used to study the anti-biofilm formation activity of exemplary ABF agents according to embodiments of the present invention.
The C. albicans strain was propagated in yeast peptone dextrose (YPD) medium (1% wt/vol yeast extract, 2% wt/vol peptone, 2% wt/vol dextrose). Batches of medium (30 ml in 125 ml Erlenmeyer flask) were inoculated with material from Sabouraud dextrose agar (SDA) plates containing freshly grown C. albicans and incubated overnight in an orbital shaker (200 rpm) at 30° C. under aerobic conditions. C. albicans grew in the budding-yeast phase under these conditions. Cells were harvested and washed twice in sterile phosphate-buffered saline (PBS) (Oxoid Ltd, Basingstoke, Hampshire, UK). Thereafter the cells were resuspended in RPMI 1640 supplemented with L-glutamine and buffered with morpholinepropanesulfonic acid (MOPS) (Sigma Chemical Co., St. Louis, Mo.) and adjusted to the desired density after counting with a hematocytometer.
Biofilms of C. albicans were formed in the wells on commercially available presterilized, polystyrene, flat-bottomed, 96-well microtiter plates (Nunc—Nunclon™ Surface, Roskilde, Denmark). Biofilms were formed by pipetting 100 μl of the standardized cell suspensions (5×10^6 cells/ml) into selected wells of the microtiter plate and incubating the plate for 72 hours at 37° C. After 24 hours and 48 hours of the biofilm formation, the medium was replaced by fresh RPMI 1640 medium.
Working concentrations of farnesol (300 μM; 66 μg/ml) and the exemplary ABF agents TZD10 and TZD11 (200 μg/ml) were prepared in RPMI 1640 by using the stock solutions. […]
The effect of the compounds on biofilm formation was measured by using a metabolic reduction assay (XTT kit). […] The colorimetric change (a reflection of the metabolic activity of the biofilm) was measured with a microtiter plate reader at 492 nm. The anti-biofilm formation activity effect of the tested agents was expressed as the percentage of the optical density (OD) of the treated wells compared to that of control (untreated) wells for the XTT assays. […]

[2] = system: Candida albicans (ATCC 90028) preformed biofilm; test: C. albicans preformed (mature) biofilm, XTT reduction assay; assay type: cell-based; details: for activity on the preformed biofilm: 24 hours on 48-hour biofilm
Description: The effect of the compounds on biofilm formation was measured by using a metabolic reduction assay (XTT kit). Briefly, 100 μl of the XTT reaction solution (Biological Industries, Israel Beit Haemek Ltd.) was added to each well, and microtiter plate was then incubated in the dark for 2 hours at 37° C. The colorimetric change (a reflection of the metabolic activity of the biofilm) was measured with a microtiter plate reader at 492 nm. The anti-biofilm formation activity effect of the tested agents was expressed as the percentage of the optical density (OD) of the treated wells compared to that of control (untreated) wells for the XTT assays. Light microscopic examination of biofilms formed in microtiter plates was performed in parallel by using an inverted microscope.
C. albicans biofilm was formed during 48 hours at 37° C. on the surfaces of microtiter plates by using the protocol described hereinabove, and the tested ABF agents were then added to the preformed biofilm. Following biofilm formation the spent medium and the nonadherent cells were removed by washing the biofilms three times in sterile PBS. The tested compounds, the ABF agent at 25, 50, 100 μg/ml, fluconazole at 31.25, 62.5, 125 μg/ml, in fresh RPMI 1640—farnesol at 150 μM (33 μg/ml), were added to selected wells of the microtiter plates. In addition, the effect of combination of farnesol (33 μg/ml) with fluconazole (31.25 μg/ml) and the ABF agent (25 or 50 μg/ml) with fluconazole (31.25 μg/ml) was examined on preformed biofilms. The plates were then incubated for 24 hours at 37° C. The effect of the compounds on pre-formed biofilms was then estimated by using the XTT reduction assay as described hereinabove.

Row | SMILES | reduction in the metabolic activity of the yeast cells (XTT) ([1]; 33 μg/ml, 72 hours) | additive effect of combination with fluconazole compared to farnesol alone ([1]; removed after 48 hours, fluconazole 31.25 μg/ml for another 24 hours) | activity on the preformed biofilm [2] | additive anti-biofilm effect of adding fluconazole ([2]; farnesol 33 μg/ml + fluconazole 31.25 μg/ml, pre-formed biofilm) | reduction in the metabolic activity (XTT), biofilm formation ([1]; 31-125 μg/ml, 72 hours)
1 | CC(C)=CCC/C(C)=C/CC/C(C)=C/CO [farnesol] | 43% | did not show any additive effect | no activity | no additive anti-biofilm effect | 
2 | OC(Cn1cncn1)(Cn1cncn1)c1ccc(F)cc1F [fluconazole] |  |  | no activity |  | up to 77%
